Assays:
Format in all cases: cell-based
[1] = test system: Colony Forming Unit—Megakaryocyte (CFU-Mk); experiment: Colony forming unit (CFU) assay, human bone marrow cells; conditions: for effect of receptor antagonist on substance P-enhanced platelet colony formation: antagonist in the presence of substance P
From the text: (§1) This study examined the formation of three different progenitor cell populations, erythrocytes, platelets and granulocytes/macrophages.
(§2) Bone marrow aspirates were obtained from three healthy donors between 18 and 35 years of age following appropriate guidelines and protocols. Bone marrow mononuclear cells were isolated using a Ficoll-Hypaque density gradient, separating red blood cells from the others. Cells from each donor were processed independently and used for setting up individual experiments to assess the effects, if any, of donor variability.
(§3) Cells (1×10^5) were plated in duplicate onto 35 mm tissue culture plates for each condition tested and set up as described in Rameshwar et al. 1993, Blood. 81:2, 391-398. Erythroid and granulocyte/macrophage cultures were plated using methylcellulose and megakaryocyte cultures (platelet precursors) used a collagen-based support (StemCell Technologies, Vancouver, Canada, catalogue #04973). […] CP 99,994 (Pfizer) was used as a neurokinin-1 receptor antagonist and SR 48968 (Sanofi) was used as a neurokinin-2 receptor antagonist.
Cultures were set up with limited cytokines and growth factors which would promote differentiation of one progenitor per plate.
Each compound was dissolved in endotoxin-free water to a final concentration of 0.1 mM. After reconstitution, the solutions were aliquoted into siliconized microcentrifuge tubes and exposed to nitrogen gas, eliminating oxygen in the head space of the enclosure. All aliquots were stored at −20° C. until use and used within one month of reconstitution. See, Rameshwar, et al. 1997, J. Immunol.
Cultures were incubated at 37° C. with 5% CO2 for approximately 14 days, after which colonies were manually enumerated using a microscope. To count megakaryocyte colonies, the cells were fixed followed by a staining procedure using the following antibodies: primary—mouse anti-human GP11b/111a, isotype control—mouse anti-trinitrophenyl, secondary—biotin-conjugated goat anti-mouse IgG, detection—avidin-alkaline phosphatase conjugate. […]

[2] = test system: human bone marrow mononuclear cell (MNC) fraction; experiment: CFC assay, multi-donor study, all seven cell populations (overall toxicity); conditions: three donors, highest doses (up to 1 nM)
Experimental: Compound was dissolved in 1 ml of Iscove's Modified Dulbecco's Medium (IMDM) and a serial dose response was prepared in single log doses so that the final dose in culture ranged from 1 nanoMolar (nM) to 1×10^−16 M. All working dilutions were performed in IMDM. Cell cultures from each donor were started at different times and a fresh solution of Homspera® was prepared for each individual experiment.
Starting with human bone marrow aspirate, the mononuclear cell (MNC) fraction from each aspirate was separated from whole bone marrow using Ficoll-Paque density gradient centrifugation.
The colony-forming cell (CFC) assay was performed using optimal growth factor/cytokine concentrations. The reagents and conditions were similar to those used in Example 3, except that no ATP measurements were performed. The MNC fraction from each bone marrow donor was dissolved in IMDM and cultured at a concentration of 5,000 cells/well in a Culture Master Mix (HemoGenix, Inc., Colorado Springs, Colo.). […]
The mean, standard deviation and percent coefficient of variation was calculated for all groups, transposed and plotted as a function of donor. The percent from control values were calculated and also plotted as a function of donor. […]

[3] = test system: Blast Forming Unit—Erythroid (BFU-E); experiment: Colony forming unit (CFU) assay, human bone marrow cells; conditions: about 14 days; three donors; FIG. 1
From the text: as §1, §2, §3
(§4) The cytokines and growth factors added to Blast Forming Unit—Erythroid (BFU-E) cultures, Colony Forming Unit—Erythroid (CFU-E) cultures, and Colony Forming Unit—Granulocyte/Macrophage (CFU-GM) cultures were added as defined by proliferative units. […]

[4] = test system: Colony Forming Unit—Erythroid (CFU-E); experiment: as above; conditions: about 14 days; FIG. 2
From the text: as §1, §2, §3, §4

How did the “effect of receptor antagonist on substance P-enhanced platelet colony formation” value [1] turn out when `COc1ccccc1CN[C@H]1CCCN[C@H]1c1ccccc1` [CP-99,994] was run?
Its value is “blocks the stimulatory activity of substance P”.

Which toxicity [2] does the source give for `CC(C)C[C@H](NC(=O)CN(C)C(=O)[C@H](Cc1ccccc1)NC(=O)[C@H](Cc1ccccc1)NC(=O)[C@H](CCC(N)=O)NC(=O)[C@H](CCC(N)=O)NC(=O)[C@@H]1CCCN1C(=O)[C@H](CCCCN)NC(=O)[C@@H]1CCCN1C(=O)[C@@H](N)CCCNC(=N)N)C(=O)N[C@@H](CCS(C)(=O)=O)C(N)=O` [Homspera®, [Sar^9, Met(O)2^11]-substance P] here?
The toxicity was “no apparent toxicity”.

How did the “effect of receptor antagonist on substance P-enhanced platelet colony formation” value [1] turn out when `CC(=O)NC1(c2ccccc2)CCN(CC[C@H](CN(C)C(=O)c2ccccc2)c2ccc(Cl)c(Cl)c2)CC1` [SR48968] was run?
Its value is “no effect on substance P activity”.

Which “BFU-E colony formation, increase from control values” [3] does the source give for “Arg Pro Lys Pro Gln Gln Phe Phe Gly Leu Met [substance P]” here?
Its value is ~60%.

What about the “CFU-E colony formation, enhancement from control values” [4] of the same compound?
Its value is “about 70%”.

And the “concentration at which effective on platelet precursors” value [1]?
The value was 10^−8 M.
